Values quoted from earlier work in patent US20210236593A1, “METHODS OF SUPPORTING WEIGHT MAINTENANCE BY DECREASING THE ACTIVITY OF FAM46A” (SOCIETE DES PRODUITS NESTLE S.A., priority 2016, published 2021).
“Also recorded” adds a separate entry of the source. Where a name gives a salt, the structure may show the parent alone.

Tested on: FAM46A
Conditions: effect of the chemical on FAM46A expression

| SMILES | Interaction Actions |
| --- | --- |
| CCc1nn(CCCN2CCN(c3cccc(Cl)c3)CC2)c(=O)n1CCOc1ccccc1 [Nefazodone, reference compound] | Decreases expression |
| CC(=O)Nc1ccc(O)cc1 [Acetaminophen, reference compound] | Affects expression |
| C=CC1(C)OC(=O)N(c2cc(Cl)cc(Cl)c2)C1=O (stereo not drawn) [Vinclozolin] | Affects expression; also recorded: Decreases expression |
| CCOC(=O)/C=C\C(=O)OCC [Diethyl maleate] | Decreases expression |
| N#Cc1nn(-c2c(Cl)cc(C(F)(F)F)cc2Cl)c(N)c1[S+]([O-])C(F)(F)F (stereo not drawn) [Fipronil] | Decreases expression |
| Cc1cccc(Nc2cc(Cl)nc(SCC(=O)O)n2)c1C [Pirinixic acid, reference compound] | Decreases expression |
| CN(C)C(=O)Nc1ccc(Cl)c(Cl)c1 [Diuron] | Decreases expression |
| OO [Hydrogen Peroxide] | Affects expression; also recorded: Decreases expression |
| Nc1ccn([C@@H]2O[C@H](CO)[C@@H](O)[C@@H]2O)c(=O)n1 [Cytarabine, reference compound] | Decreases expression |
| Nc1ccccc1NC(=O)c1ccc(CNC(=O)OCc2cccnc2)cc1 [Entinostat, reference compound] | Decreases expression |
| CC1=C(/C=C/C(C)=C/C=C/C(C)=C/C(=O)O)C(C)(C)CCC1 [Tretinoin, reference compound] | Decreases expression |
| CC(/C=C/C(=O)NO)=C\[C@@H](C)C(=O)c1ccc(N(C)C)cc1 [Trichostatin A, reference compound] | Decreases expression |
| [CH3][Hg][Cl] [Methylmercuric chloride] | Decreases expression |
| CCCC(CCC)C(=O)O [Valproic Acid, reference compound] | Decreases expression |
| CCCCOC(=O)c1ccccc1C(=O)OCCCC [Dibutyl Phthalate] | Decreases expression |
| Cc1oncc1C(=O)Nc1ccc(C(F)(F)F)cc1 [Leflunomide, reference compound] | Decreases expression |
| c1ccc2c(c1)cc1ccc3cccc4ccc2c1c34 [Benzo(a)pyrene] | Decreases expression |
| NC(=O)N1c2ccccc2C=Cc2ccccc21 [Carbamazepine, reference compound] | Affects expression |
| O=C(NN=C1CCCCC1)C(=O)NN=C1CCCCC1 [Cuprizone, reference compound] | Decreases expression |
| Clc1cc2c(cc1Cl)Oc1cc(Cl)c(Cl)cc1O2 [Tetrachlorodibenzodioxin] | Decreases expression |
| O=C(O)C(F)(F)C(F)(F)C(F)(F)C(F)(F)C(F)(F)C(F)(F)C(F)(F)C(F)(F)C(F)(F)C(F)(F)F [Perfluoro-n-undecanoic acid] | Decreases expression |
